Patent US11643438B2, “Antimicrobial peptides and methods of use” (priority 2018, dated 2023)
Entries after “also recorded” stand apart in the source; their conditions may differ. *1 amine or outer side, *2 acyl side, *3 side chain or, on linkers, in order; H or OH if unused. Where a SMILES comes first, the peptide text is derived from it. [ ]: non-standard residue; d: D form. X2 = CC[C@H](C)C[C@H](C)C[C@H](C)C[C@H](N[*:1])C(=O)[*:2]; X1 = CC[C@@H](C)[C@@H](O[*:1])C(=O)[*:2]; NMeVal(β-OH) = CN[C@H](C(=O)O)C(C)(C)O; aIle = CC[C@@H](C)[C@H](N)C(=O)O; NMeV = CN[C@H](C(=O)O)C(C)C; Sar = CNCC(=O)O

tested on: C. albicans SC5314 Flu^R; assay: Ex vivo model of fungal keratitis (porcine cornea); set-up: species or system Candida albicans

| SMILES | antifungal activity (fungal growth/infection), in words |
| --- | --- |
| CC[C@H](C)C[C@H](C)C[C@H](C)C[C@@H]1NC(=O)[C@H](C(C)C)N(C)C(=O)[C@@H]([C@H](C)CC)OC(=O)[C@H](C(C)(C)O)N(C)C(=O)[C@H](CC(C)C)NC(=O)[C@H](C(C)C)N(C)C(=O)[C@H]([C@H](C)CC)NC(=O)[C@@H]2CCCN2C(=O)CN(C)C1=O [Compound 1, persephacin] (cyclo(L[NMeVal(β-OH)][X1][NMeV][X2][Sar]P[aIle][NMeV])) | inhibited the growth; also recorded: eliminated the fungus |
| OC(Cn1cncn1)(Cn1cncn1)c1ccc(F)cc1F [Fluconazole, fluconazole] | did not inhibit the growth; also recorded: unable to inhibit the fungus |
| C[C@@H]1C/C=C/C=C/C=C/C=C/[C@H](O[C@@H]2O[C@H](C)[C@@H](O)[C@H](N)[C@@H]2O)C[C@@H]2O[C@](O)(C[C@@H](O)C[C@H]3O[C@@H]3/C=C/C(=O)O1)C[C@H](O)[C@H]2C(=O)O [Natamycin, natamycin] | inhibited the growth; also recorded: reduced the fungal burden |
